{
  "source": "paper PMC7260179",
  "about": "“Structural insight into the electron transfer pathway of a self-sufficient P450 monooxygenase” (Nature Communications, 2020)",
  "key": {"CYP116B46 [1]": {"target": "T1, CYP116B46 (Tepidiphilus thermophilus, UniProt A0A0K6ITW2)", "T1 construct": "gene Ga0061068_103196; full-length, synthetic gene in pET46 Ek/LIC (Ni-NTA purified), expressed in E. coli BL21(DE3); residues 27-779 modelled in crystal", "T1 sequence (A0A0K6ITW2 entry or part of it)": "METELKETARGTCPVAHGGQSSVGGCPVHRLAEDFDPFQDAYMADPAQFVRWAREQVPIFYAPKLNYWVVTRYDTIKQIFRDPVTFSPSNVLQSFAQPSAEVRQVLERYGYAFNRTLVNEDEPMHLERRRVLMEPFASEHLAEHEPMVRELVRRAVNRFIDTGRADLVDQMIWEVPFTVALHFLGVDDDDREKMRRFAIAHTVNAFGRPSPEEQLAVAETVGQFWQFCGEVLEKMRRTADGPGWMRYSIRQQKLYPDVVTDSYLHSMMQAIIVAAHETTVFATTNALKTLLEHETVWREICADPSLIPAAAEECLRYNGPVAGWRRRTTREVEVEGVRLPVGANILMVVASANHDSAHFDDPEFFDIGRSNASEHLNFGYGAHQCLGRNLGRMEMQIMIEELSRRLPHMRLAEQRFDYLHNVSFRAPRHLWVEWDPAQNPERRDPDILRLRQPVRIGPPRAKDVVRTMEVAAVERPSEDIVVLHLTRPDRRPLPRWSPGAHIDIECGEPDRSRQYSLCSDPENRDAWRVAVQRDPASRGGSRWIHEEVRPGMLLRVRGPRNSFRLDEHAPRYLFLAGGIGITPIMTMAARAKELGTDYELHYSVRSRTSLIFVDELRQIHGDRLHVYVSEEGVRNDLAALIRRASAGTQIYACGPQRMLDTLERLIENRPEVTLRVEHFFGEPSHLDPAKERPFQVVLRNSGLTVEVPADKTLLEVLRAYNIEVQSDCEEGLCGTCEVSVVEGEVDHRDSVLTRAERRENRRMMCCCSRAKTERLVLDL", "test": "X-ray crystal structure", "format": "binding", "settings": "crystals at pH 7.0"}, "CYP116B46 [2]": {"target": "T1, CYP116B46", "test": "hydroxylation assay, GC-FID of silylated products", "format": "biochemical", "settings": "0.4 mM substrate, 10 uM enzyme, 1 mM NADP+ with glucose dehydrogenase/glucose recycling, pH 8.0, 30 C, 5 h"}},
  "data": [
    {"smiles": "Cc1cc2nc3c(=O)[nH]c(=O)nc-3n(C[C@H](O)[C@H](O)[C@H](O)COP(=O)(O)O)c2cc1C", "note": "[FMN]", "values": [
      {"measurement": "X-ray crystal structure, 2.13 A", "setting": "CYP116B46 [1]; reductase domain, co-purified with the recombinant protein", "result": "The FMN bound in the reductase domain was co-purified with the recombinant protein"}
    ]},
    {"smiles": "[S]1[Fe][S][Fe]1", "note": "[[2Fe-2S] cluster]", "values": [
      {"measurement": "X-ray crystal structure, 2.13 A", "setting": "CYP116B46 [1]; ferredoxin domain", "result": "binding sites for each of the prosthetic groups, heme, FMN and binuclear Fe-S cluster"}
    ]},
    {"smiles": "CCCCCCCCCC(=O)O", "note": "[decanoic acid]", "values": [
      {"measurement": "hydroxylation assay, GC-FID of silylated products", "setting": "CYP116B46 [2]", "result": "The enzyme activity of CYP116B46 was estimated by decanoic acid hydroxylation assay"}
    ]}
  ]
}
